The nature of experiment [1]: DPPH radical scavenging effect. Particulars: samples marked (μM); read-out: SC50 DPPH radical. An excerpt: Data are expressed as an average of measurements conducted in triplicate.
For orientation: DPPH is a stable violet radical that fades when it is reduced.

In experiment [2] the test system is lipid peroxide formation in liver homogenate. The experiment can be described thus: Lipid peroxide production inhibitory effect (LPO) in rat liver homogenate. Type of experiment: biochemical, Sprague-Dawley rats. Particulars: for IC50: samples marked (μM). As to the method:
The lipid peroxide production inhibitory effect (LPO) of the extract and the isolated compounds were tested. Lipid peroxide is a substance produced by peroxidation of lipids through various oxidation reactions. Reactive oxygen species, free radicals and the like oxidize phospholipids of cell membranes containing great amounts of unsaturated fatty acids, producing lipid peroxides in the cell membranes. When the lipid peroxides are accumulated in the cell membranes, the fluidity and functionality of the cell membrane are deteriorated, resulting in local disorders in tissues such as inhibition of cell functions and changes in cell structures.
Therefore, the effects of inhibiting lipid peroxide production by the Filipendula glaberrima leaf and stem extracts and the isolated compounds were measured as follows. The animals used in the experiment were male Sprague-Dawley rats, and only water was supplied for 24 hours before the experiment. […] The experimental animals were subjected to respiratory anesthesia with isoflurane, and dissected and a 0.15 M ice-cold KCl solution was perfused through the liver portal vein to remove blood from the liver and extract the liver. […] 50 mM Tris-HCl buffer (pH 7.5) was added to 300 μl of a liver homogenate (11 mg protein/ml), 10 μM FeSO4, 10 μl of a test drug and 0.4 mM ascorbic acid to adjust the total volume to 1 ml, and then the resulting mixture was incubated at 37° C. for 30 minutes.

The next experiment deals with T1, HMG-CoA reductase (Homo sapiens, UniProt P04035).
T1 construct: purchased Sigma-Aldrich (St. Louis, Mo.)
T1 sequence (P04035 426-888 limits assumed): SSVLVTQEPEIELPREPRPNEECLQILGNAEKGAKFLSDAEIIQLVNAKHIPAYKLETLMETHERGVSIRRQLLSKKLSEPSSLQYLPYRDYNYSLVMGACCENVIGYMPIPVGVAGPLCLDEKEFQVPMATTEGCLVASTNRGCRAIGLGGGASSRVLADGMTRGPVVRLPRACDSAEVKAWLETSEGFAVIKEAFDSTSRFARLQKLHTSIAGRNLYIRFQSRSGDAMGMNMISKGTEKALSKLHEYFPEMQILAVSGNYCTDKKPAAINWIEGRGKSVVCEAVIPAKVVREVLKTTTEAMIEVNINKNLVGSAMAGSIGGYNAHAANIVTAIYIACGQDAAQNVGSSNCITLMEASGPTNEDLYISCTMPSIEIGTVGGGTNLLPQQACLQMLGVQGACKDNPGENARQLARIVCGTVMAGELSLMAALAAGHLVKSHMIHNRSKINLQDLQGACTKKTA
The experiment in a line: HMG-CoA reductase inhibitory effect (modified Perchellet's assay, absorbance at 340 nm). The format is biochemical. Particulars: mean ± standard error; values without (μM) mark. As to the method:
Transparent 96-well plates were purchased from SPL Lifesciences (Pocheon). A VERSA Max™ microplate reader from Molecular Devices was used.
The sample for detection was dissolved in DMSO before use.
The activity of HMG-CoA reductase was compared and analyzed by recording the absorbance at 340 nm at 37° C. for 10 minutes using a VERSA Max™ microplate reader. […] The experiment was repeated three times.

Experiment [3] can be described thus: Xanthine/xanthine oxidase-induced superoxide anion scavenging effect. The format is biochemical. To be noted: samples marked (μM); read-out: SC50 Superoxide anion radical (O2−). As to the method: Specifically, 0.1 mM xanthine, 0.1 mM EDTA, 50 μg/ml of bovine serum albumin (BSA), […] nitroblue tetrazolium (NBT), a 40 mM Na2CO3 solution, a test sample solution diluted at each concentration and a solution with a final volume of 200 μl containing 1.4×10^−3 unit XOD were mixed and reacted at 25° C. for 20 minutes.

SMILES strings stand for the structures. Converted amounts (≈) assume the structure as drawn.

Consider `C[C@@H]1CC[C@]2(C(=O)O[C@@H]3OC(COC(=O)c4cc(O)c(O)c(O)c4)[C@@H](O)[C@H](O)C3O)CC[C@]3(C)C(=CC[C@@H]4[C@@]5(C)C[C@@H](O)[C@H](O)C(C)(C)[C@@H]5CC[C@]43C)[C@@H]2[C@]1(C)O` (some centres unmarked) [Compound 1], for which the values for the IC50 (in experiment [1]; in experiment [2]; against HMG-CoA reductase) were 47.88 ± 0.01 µM, 89 ± 3.69 µM and 175 ± 2.2 µM, respectively.

With `COC(=O)c1cc(O)c(O)c(O)c1Oc1cc2c(c(O)c1O)-c1c(cc(O)c(O)c1O)C(=O)O[C@@H]1C(COC2=O)OC(O)C(OC(=O)c2cc(O)c(O)c(O)c2)C1OC(=O)c1cc(O)c(O)c(O)c1` (some centres unmarked) [Compound 2], the IC50 came out at 3.62 ± 0.57 µM in experiment [1], 7.99 ± 0.05 µM in experiment [2], 41.1 ± 2.24 µM in experiment [3] and 1.46 ± 0.22 µM at HMG-CoA reductase.

For `O=c1c(O)c(-c2ccc(O)c(O)c2)oc2cc(O)cc(O)c12` [Quercetin], the figures for the IC50 in experiment [1], in experiment [2] and in experiment [3] were 19 ± 2.25 µM, 29.6 ± 1.32 µM and over 50 µM, respectively. The “IC50 LPO” value in experiment [2] (rat liver homogenate, FeSO4/ascorbic acid, TBA, 535 nm) is 29.57 ± 1.32 µg/mL (≈ 97.8 µM).

`Oc1ccc(C=Cc2cc(O)cc(O)c2)cc1` [Resveratrol] came in with an IC50 in experiment [2] of 35.64 ± 0.01 µM.

`Cc1c(C)c2c(c(C)c1O)CCC(C)(C(=O)O)O2` (centres unmarked) [Trolox]: the IC50 was 47.5 ± 0.41 µM in experiment [1], over 50 µM in experiment [2] and over 50 µM in experiment [3].

`O=C1O[C@H]([C@@H](O)CO)C(O)=C1O` [Vit. C, ascorbic acid]: the values for the IC50 in experiment [1] and in experiment [3] were 29.3 ± 2.49 µM and over 50 µM, respectively.

Values taken from patent US11638737B2, “Food compositions and pharmaceutical compositions containing Filipendula glaberrima extract for lowering blood cholesterol levels and for ameliorating atherosclerosis” (KOREA INSTITUTE OF SCIENCE AND TECHNOLOGY, priority 2019, dated 2023).
